Test results as given in ChEMBL document CHEMBL1201862, “PubChem BioAssay data set” (2004).
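Interpolation was linear, between the two tested concentrations surrounding the appropriate level; five concentrations were tested over 48 hours in 96-well plates. At the GI50, growth is halved.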 The source made the active and inactive calls. No stated cut-off is given here; in the data, active = GI50 up to about 1.1 µM and inactive = higher. Residues, ends and D or L forms follow the SMILES beside them. Groups on a side chain read outwards from the residue. *: point of attachment. Cbz = O=C(OCc1ccccc1)*; Boc = CC(C)(C)OC(=O)*

How the values were obtained:
Experiment in all cases: growth of human tumour cells (NCI), 48 h
A498 = tested on: A498
LOX IMVI = tested on: LOX IMVI
SR = tested on: SR
MDA-MB-435 = tested on: MDA-MB-435
OVCAR-5 = tested on: OVCAR-5
CCRF-CEM = tested on: CCRF-CEM
Malme-3M = tested on: Malme-3M
OVCAR-4 = tested on: OVCAR-4
IGROV-1 = tested on: IGROV-1
MOLT-4 = tested on: MOLT-4
OVCAR-8 = tested on: OVCAR-8
EKVX = tested on: EKVX
SK-MEL-28 = tested on: SK-MEL-28
SK-MEL-2 = tested on: SK-MEL-2
786-0 = tested on: 786-0
SF-295 = tested on: SF-295
HOP-62 = tested on: HOP-62
HL-60 = tested on: HL-60
MCF7 = tested on: MCF7
HOP-92 = tested on: HOP-92

Measured: GI50

C=C(C)CN(CC#N)CC(=C)C
inactive: A498 > 100 µM | LOX IMVI > 100 µM | SR > 100 µM | MDA-MB-435 > 100 µM | OVCAR-5 > 100 µM | CCRF-CEM > 100 µM | Malme-3M > 100 µM | OVCAR-4 > 100 µM | IGROV-1 > 100 µM | MOLT-4 > 100 µM | OVCAR-8 > 100 µM | EKVX > 100 µM | SK-MEL-28 > 100 µM | SK-MEL-2 > 100 µM | 786-0 > 100 µM | SF-295 > 100 µM | HOP-62 > 100 µM | HL-60 > 100 µM | MCF7 > 100 µM

O=C(CSC1=NC(=O)C2(NN1)c1ccccc1-c1ccccc12)NC(=S)Nc1ccccc1
inactive: LOX IMVI > 10 µM | SR 6.03 µM | MDA-MB-435 > 10 µM | OVCAR-5 > 10 µM | CCRF-CEM > 10 µM | Malme-3M > 10 µM | OVCAR-4 > 10 µM | IGROV-1 > 10 µM | MOLT-4 9.14 µM | HOP-92 > 10 µM | OVCAR-8 > 10 µM | EKVX 4.04 µM | SK-MEL-28 > 10 µM | 786-0 > 10 µM | SF-295 > 10 µM | HOP-62 > 10 µM | HL-60 > 10 µM | MCF7 4.27 µM

NC(=O)N/N=C1\CCCCc2ccccc21
inactive: SR > 10 µM | MDA-MB-435 > 10 µM | OVCAR-5 > 10 µM | CCRF-CEM > 10 µM | Malme-3M > 10 µM | OVCAR-4 > 10 µM | MOLT-4 > 10 µM | HOP-92 > 10 µM | OVCAR-8 > 10 µM | EKVX > 10 µM | SK-MEL-2 > 10 µM | 786-0 > 10 µM | HOP-62 > 10 µM | MCF7 > 10 µM

COc1cccc(OCC(=N/NC(=O)c2ccncc2)/N=C/c2cccnc2)c1
inactive: A498 > 100 µM | LOX IMVI > 100 µM | MDA-MB-435 > 100 µM | OVCAR-5 > 100 µM | CCRF-CEM > 100 µM | Malme-3M > 100 µM | OVCAR-4 > 100 µM | IGROV-1 > 100 µM | MOLT-4 49.7 µM | HOP-92 21 µM | OVCAR-8 86.3 µM | EKVX > 100 µM | SK-MEL-28 > 100 µM | SK-MEL-2 > 100 µM | 786-0 > 100 µM | SF-295 > 100 µM | HOP-62 > 100 µM | HL-60 > 100 µM | MCF7 > 100 µM

CCc1cc2c(oc3cc(C)ccc32)c(=O)n1C
inactive: LOX IMVI > 10 µM | SR > 10 µM | MDA-MB-435 > 10 µM | OVCAR-5 > 10 µM | CCRF-CEM > 10 µM | Malme-3M > 10 µM | OVCAR-4 > 10 µM | IGROV-1 > 10 µM | MOLT-4 > 10 µM | HOP-92 > 10 µM | OVCAR-8 > 10 µM | EKVX > 10 µM | SK-MEL-2 > 10 µM | 786-0 > 10 µM | SF-295 > 10 µM | HL-60 > 10 µM | MCF7 > 10 µM

COc1ccc2c(O)c(S(=O)(=O)c3ccc(C)cc3)c(=O)oc2c1OC
inactive: SR > 100 µM | MDA-MB-435 > 100 µM | OVCAR-5 > 100 µM | CCRF-CEM > 100 µM | Malme-3M > 100 µM | OVCAR-4 > 100 µM | IGROV-1 > 100 µM | MOLT-4 > 100 µM | HOP-92 > 100 µM | OVCAR-8 > 100 µM | EKVX > 100 µM | SK-MEL-28 > 100 µM | SK-MEL-2 > 100 µM | 786-0 > 100 µM | SF-295 > 100 µM | HL-60 > 100 µM | MCF7 > 100 µM

COC(=O)C1=COc2c(n(C)c3ccccc23)-c2ccccc21
inactive: A498 > 100 µM | LOX IMVI > 100 µM | SR 4.21 µM | MDA-MB-435 > 100 µM | OVCAR-5 > 100 µM | CCRF-CEM > 100 µM | Malme-3M > 100 µM | IGROV-1 20.2 µM | MOLT-4 > 100 µM | OVCAR-8 > 100 µM | EKVX > 100 µM | SK-MEL-2 > 100 µM | 786-0 > 100 µM | SF-295 > 100 µM | HOP-62 > 100 µM | HL-60 > 100 µM | MCF7 > 100 µM

CC(=O)Nc1ccc2c(c1)[nH]c(=O)c1cc(Cl)ccc12
active: CCRF-CEM 0.341 µM
inactive: A498 29.3 µM | LOX IMVI 19.5 µM | SR 3.2 µM | MDA-MB-435 23.4 µM | OVCAR-5 27 µM | Malme-3M 17.1 µM | OVCAR-4 34.1 µM | IGROV-1 6.75 µM | MOLT-4 2.23 µM | OVCAR-8 10 µM | EKVX 26.2 µM | SK-MEL-28 38.8 µM | SK-MEL-2 46.6 µM | 786-0 65.6 µM | SF-295 35.1 µM | HOP-62 33 µM | HL-60 21.1 µM | MCF7 4.48 µM

COc1cnnc2c(C)c(-c3ccccc3)nn12
inactive: A498 29.2 µM | LOX IMVI > 100 µM | MDA-MB-435 77.4 µM | OVCAR-5 > 100 µM | CCRF-CEM > 73.1 µM | Malme-3M 39.6 µM | OVCAR-4 > 79.4 µM | IGROV-1 38.4 µM | MOLT-4 > 83.6 µM | HOP-92 59.3 µM | OVCAR-8 > 100 µM | EKVX > 100 µM | SK-MEL-28 71.9 µM | SK-MEL-2 40.4 µM | 786-0 > 84.9 µM | SF-295 > 78.7 µM | HOP-62 > 69.3 µM | HL-60 > 100 µM | MCF7 > 100 µM

COc1ccccc1C(=O)N(Cc1ccccc1)c1ccc(Cl)c(C(=O)OC(C)C)c1
inactive: A498 37.3 µM | LOX IMVI 28.2 µM | MDA-MB-435 27 µM | OVCAR-5 > 63.1 µM | CCRF-CEM 35.5 µM | Malme-3M 21.9 µM | OVCAR-4 15.6 µM | IGROV-1 25.8 µM | MOLT-4 14.4 µM | HOP-92 6.67 µM | OVCAR-8 27.8 µM | EKVX 16.7 µM | SK-MEL-28 41.7 µM | SK-MEL-2 14.9 µM | 786-0 25.9 µM | SF-295 14.3 µM | HOP-62 18.8 µM | HL-60 9.4 µM | MCF7 47.8 µM

OC(c1cc2ccc(C(F)(F)F)cc2c2cc(C(F)(F)F)ccc12)C1CCCCN1 (stereo not given)
inactive: LOX IMVI 1.26 µM | SR 2.38 µM | MDA-MB-435 1.48 µM | OVCAR-5 1.77 µM | CCRF-CEM 1.78 µM | OVCAR-4 1.77 µM | IGROV-1 1.74 µM | MOLT-4 1.41 µM | HOP-92 1.74 µM | SK-MEL-28 1.91 µM | SK-MEL-2 1.91 µM | 786-0 1.58 µM | HOP-62 1.85 µM | HL-60 31.4 µM | MCF7 1.81 µM
active: Malme-3M 0.0498 µM | EKVX 0.428 µM

O=C1c2ccccc2-c2nc(-c3cccs3)cc3c2c1nc1ccccc13
inactive: LOX IMVI 8.24 µM | SR 6.21 µM | MDA-MB-435 2.01 µM | OVCAR-5 36.7 µM | CCRF-CEM 22.3 µM | Malme-3M 3.56 µM | OVCAR-4 56 µM | IGROV-1 12.4 µM | MOLT-4 37.1 µM | HOP-92 > 100 µM | OVCAR-8 41.8 µM | EKVX 98.2 µM | SK-MEL-28 17.5 µM | SK-MEL-2 13.6 µM | 786-0 35.8 µM | SF-295 27.8 µM | HOP-62 22 µM | HL-60 5.42 µM | MCF7 13 µM

NC(=O)C(NC=O)c1ccccc1 (stereo not given)
inactive: LOX IMVI > 100 µM | SR > 100 µM | MDA-MB-435 > 100 µM | CCRF-CEM > 100 µM | OVCAR-4 > 100 µM | IGROV-1 > 100 µM | MOLT-4 > 100 µM | HOP-92 > 100 µM | OVCAR-8 > 100 µM | EKVX > 100 µM | SK-MEL-28 > 100 µM | 786-0 > 100 µM | SF-295 > 100 µM | HOP-62 > 100 µM | HL-60 > 100 µM | MCF7 > 100 µM

c1ccc(Cc2cccc3cc(-c4ccc(-c5ccccc5)cc4)[nH]c23)cc1
inactive: LOX IMVI > 100 µM | SR 16.9 µM | MDA-MB-435 > 100 µM | OVCAR-5 > 100 µM | CCRF-CEM 30.1 µM | Malme-3M 1.76 µM | OVCAR-4 19.7 µM | IGROV-1 > 100 µM | MOLT-4 > 100 µM | HOP-92 > 100 µM | OVCAR-8 45.8 µM | EKVX > 100 µM | SK-MEL-28 > 100 µM | SK-MEL-2 > 100 µM | 786-0 > 100 µM | SF-295 > 100 µM | HOP-62 31.5 µM | HL-60 > 100 µM | MCF7 97.1 µM

CC(C)(C)OC(=O)NC(CCCCNC(=O)CNC(=O)OCc1ccccc1)C(=O)NC(CCCCNC(=O)CNC(=O)OCc1ccccc1)C(=O)NC(CCCCNC(=O)CNC(=O)OCc1ccccc1)C(=O)NC(CCCCNC(=O)CNC(=O)OCc1ccccc1)C(=O)O (stereo not given) (Boc-K([Gly-Cbz])K([Gly-Cbz])K([Gly-Cbz])K([Gly-Cbz])-OH; configuration not given here)
inactive: LOX IMVI > 100 µM | SR > 100 µM | MDA-MB-435 > 10 µM | OVCAR-5 > 100 µM | CCRF-CEM > 100 µM | Malme-3M > 100 µM | OVCAR-4 > 10 µM | IGROV-1 > 100 µM | MOLT-4 > 100 µM | OVCAR-8 > 100 µM | SK-MEL-28 > 100 µM | SK-MEL-2 > 100 µM | 786-0 > 100 µM | HOP-62 > 100 µM | HL-60 > 100 µM | MCF7 > 100 µM
